Data reported in patent EP1054888B1 (priority 1998, dated 1999).
≈ marks a conversion by molar mass, not a printed value.

What was measured:
Assay in all cases: microbe, parasite or virus in culture
Format in all cases: cell-based
Botrytis cinerea = conditions: read-out: MIC (Minimum Inhibitory Concentration) BOTRCI
Leptosphaeria nodorum = conditions: Parastagonospora nodorum, read-out: MIC (Minimum Inhibitory Concentration) LEPTNO
Sclerotinia sclerotiorum = conditions: read-out: MIC (Minimum Inhibitory Concentration) SCLESC
[1] = test system: Mycosphaerella ligulicola; conditions: Stagonosporopsis ligulicola, read-out: MIC (Minimum Inhibitory Concentration) MYCOLG
Monilina fructigena = conditions: read-out: MIC (Minimum Inhibitory Concentration) MONIFG
Alternaria solani = conditions: read-out: MIC (Minimum Inhibitory Concentration) ALTESO
Phytophthora infestans = conditions: read-out: MIC (Minimum Inhibitory Concentration) PHYTIN
[2] = test system: Magnaporthe grisea f. sp. oryzae; conditions: Pyricularia oryzae, read-out: MIC (Minimum Inhibitory Concentration) PYRIOR, Table II; total inhibition of mycelial growth, V8 juice nutrient solution, 6-12 days at 18-25°C, visual inspection
Pyrenophora teres = conditions: read-out: MIC (Minimum Inhibitory Concentration) PYRNTE
Rhizoctonia solani = conditions: read-out: MIC (Minimum Inhibitory Concentration) RHIZSO

## Fc1cccc(Cl)c1-c1c(Cl)nc2ncnn2c1C1CCCO1 (stereo not shown) [Example 11]
Botrytis cinerea
  MIC: 1.56 µg/mL (≈ 4.42 µM)
Leptosphaeria nodorum
  MIC: 1.56 µg/mL (≈ 4.42 µM)
Sclerotinia sclerotiorum
  MIC: 25 µg/mL (≈ 70.8 µM)
[1]
  MIC: 12.5 µg/mL (≈ 35.4 µM)
Monilina fructigena
  MIC: 3.13 µg/mL (≈ 8.86 µM)

## FC(F)(F)Oc1ccccc1-c1c(Cl)nc2ncnn2c1C1CCCO1 (stereo not shown) [Example 16]
Botrytis cinerea
  MIC: 25 µg/mL (≈ 65 µM)
Leptosphaeria nodorum
  MIC: > 100 µg/mL
Sclerotinia sclerotiorum
  MIC: > 100 µg/mL
[1]
  MIC: > 100 µg/mL
Monilina fructigena
  MIC: > 100 µg/mL

## CCCCc1c(-c2c(F)cccc2Cl)c(Cl)nc2ncnn12 [Example 17]
Botrytis cinerea
  MIC: 0.2 µg/mL (≈ 0.59 µM)
Leptosphaeria nodorum
  MIC: 0.78 µg/mL (≈ 2.3 µM)
Sclerotinia sclerotiorum
  MIC: 0.78 µg/mL (≈ 2.3 µM)
[1]
  MIC: 0.78 µg/mL (≈ 2.3 µM)
Monilina fructigena
  MIC: 3.13 µg/mL (≈ 9.23 µM)

## CCCCCc1c(-c2c(F)cccc2Cl)c(Cl)nc2ncnn12 [Example 18]
Botrytis cinerea
  MIC: 0.2 µg/mL (≈ 0.566 µM)
Leptosphaeria nodorum
  MIC: 1.56 µg/mL (≈ 4.42 µM)
Sclerotinia sclerotiorum
  MIC: 0.78 µg/mL (≈ 2.21 µM)
[1]
  MIC: 0.78 µg/mL (≈ 2.21 µM)
Monilina fructigena
  MIC: 3.13 µg/mL (≈ 8.86 µM)

## Cc1ccccc1-c1c(-c2c(F)cccc2Cl)c(Cl)nc2ncnn12 [Example 35]
Alternaria solani
  MIC: 3.13 µg/mL (≈ 8.39 µM)
Botrytis cinerea
  MIC: 3.13 µg/mL (≈ 8.39 µM)
Leptosphaeria nodorum
  MIC: 6.25 µg/mL (≈ 16.7 µM)
Phytophthora infestans
  MIC: 25 µg/mL (≈ 67 µM)
[2]
  MIC: 0.78 µg/mL (≈ 2.09 µM)
Pyrenophora teres
  MIC: > 100 µg/mL
Rhizoctonia solani
  MIC: 3.13 µg/mL (≈ 8.39 µM)

## O=C1CCCC(=O)C1c1c(-c2c(F)cccc2Cl)c(Cl)nc2ncnn12 [Example 36]
Alternaria solani
  MIC: > 100 µg/mL
Botrytis cinerea
  MIC: > 100 µg/mL
Leptosphaeria nodorum
  MIC: > 100 µg/mL
Phytophthora infestans
  MIC: 12.5 µg/mL (≈ 31.8 µM)
[2]
  MIC: > 100 µg/mL
Pyrenophora teres
  MIC: > 100 µg/mL
Rhizoctonia solani
  MIC: > 100 µg/mL

## COc1nc2ncnn2c(C2CCCCC2)c1-c1c(F)cccc1Cl [Example 38]
Alternaria solani
  MIC: 100 µg/mL (≈ 277 µM)
Botrytis cinerea
  MIC: > 100 µg/mL
Leptosphaeria nodorum
  MIC: > 100 µg/mL
Phytophthora infestans
  MIC: > 100 µg/mL
[2]
  MIC: 0.78 µg/mL (≈ 2.16 µM)
Pyrenophora teres
  MIC: > 100 µg/mL
Rhizoctonia solani
  MIC: > 100 µg/mL

## Fc1cccc(F)c1-c1c(Cl)nc2ncnn2c1C1CCCCC1 [Example 40]
Alternaria solani
  MIC: 0.1 µg/mL (≈ 0.287 µM)
Botrytis cinerea
  MIC: 0.39 µg/mL (≈ 1.12 µM)
Leptosphaeria nodorum
  MIC: > 100 µg/mL
Phytophthora infestans
  MIC: > 100 µg/mL
[2]
  MIC: 0.39 µg/mL (≈ 1.12 µM)
Pyrenophora teres
  MIC: 3.13 µg/mL (≈ 8.97 µM)
Rhizoctonia solani
  MIC: > 100 µg/mL

## Fc1ccc(-c2c(-c3c(F)cccc3Cl)c(Cl)nc3ncnn23)cc1 [Example 41]
Alternaria solani
  MIC: 1.56 µg/mL (≈ 4.14 µM)
Botrytis cinerea
  MIC: 3.13 µg/mL (≈ 8.3 µM)
Leptosphaeria nodorum
  MIC: > 100 µg/mL
Phytophthora infestans
  MIC: > 100 µg/mL
[2]
  MIC: 0.1 µg/mL (≈ 0.265 µM)
Pyrenophora teres
  MIC: 3.13 µg/mL (≈ 8.3 µM)
Rhizoctonia solani
  MIC: 3.13 µg/mL (≈ 8.3 µM)

## Fc1ccccc1-c1c(Cl)nc2ncnn2c1C1CCCCC1 [Example 42]
Alternaria solani
  MIC: 0.39 µg/mL (≈ 1.18 µM)
Botrytis cinerea
  MIC: 1.56 µg/mL (≈ 4.72 µM)
Leptosphaeria nodorum
  MIC: 0.39 µg/mL (≈ 1.18 µM)
Phytophthora infestans
  MIC: > 100 µg/mL
[2]
  MIC: 0.39 µg/mL (≈ 1.18 µM)
Pyrenophora teres
  MIC: 3.13 µg/mL (≈ 9.46 µM)
Rhizoctonia solani
  MIC: > 100 µg/mL

## Clc1ccccc1-c1c(Cl)nc2ncnn2c1C1CCCCC1 [Example 43]
Alternaria solani
  MIC: 1.56 µg/mL (≈ 4.49 µM)
Botrytis cinerea
  MIC: > 100 µg/mL
Leptosphaeria nodorum
  MIC: 1.56 µg/mL (≈ 4.49 µM)
Phytophthora infestans
  MIC: > 100 µg/mL
[2]
  MIC: 0.39 µg/mL (≈ 1.12 µM)
Pyrenophora teres
  MIC: > 100 µg/mL
Rhizoctonia solani
  MIC: > 100 µg/mL

## Fc1cc(F)c(-c2c(Cl)nc3ncnn3c2C2CCCCC2)c(F)c1 [Example 44]
Alternaria solani
  MIC: < 0.05 µg/mL
Botrytis cinerea
  MIC: < 0.05 µg/mL
Leptosphaeria nodorum
  MIC: 0.2 µg/mL (≈ 0.545 µM)
Phytophthora infestans
  MIC: > 100 µg/mL
[2]
  MIC: < 0.05 µg/mL
Pyrenophora teres
  MIC: 0.2 µg/mL (≈ 0.545 µM)
Rhizoctonia solani
  MIC: 0.78 µg/mL (≈ 2.13 µM)

## [N-]=[N+]=Nc1nc2ncnn2c(C2CCCCC2)c1-c1c(F)cccc1Cl [Example 45]
Alternaria solani
  MIC: 100 µg/mL (≈ 269 µM)
Botrytis cinerea
  MIC: > 100 µg/mL
Leptosphaeria nodorum
  MIC: > 100 µg/mL
Phytophthora infestans
  MIC: > 100 µg/mL
[2]
  MIC: 12.5 µg/mL (≈ 33.6 µM)
Pyrenophora teres
  MIC: > 100 µg/mL
Rhizoctonia solani
  MIC: > 100 µg/mL

## COc1nc2ncnn2c(C2CCCCC2)c1-c1ccccc1F [Example 50]
Alternaria solani
  MIC: > 100 µg/mL
Botrytis cinerea
  MIC: > 100 µg/mL
Leptosphaeria nodorum
  MIC: > 100 µg/mL
Phytophthora infestans
  MIC: > 100 µg/mL
[2]
  MIC: 25 µg/mL (≈ 76.6 µM)
Pyrenophora teres
  MIC: > 100 µg/mL
Rhizoctonia solani
  MIC: > 100 µg/mL

## Fc1c(F)c(F)c(-c2c(Cl)nc3ncnn3c2C2CCCCC2)c(F)c1F [Example 101, 5-chloro-7-cyclohexyl-6-(pentafluorophenyl)-1,2,4-triazolo[1,5a]pyrimidine]
Alternaria solani
  MIC: 0.2 µg/mL (≈ 0.497 µM)
Botrytis cinerea
  MIC: 0.78 µg/mL (≈ 1.94 µM)
Leptosphaeria nodorum
  MIC: 0.2 µg/mL (≈ 0.497 µM)
Phytophthora infestans
  MIC: > 100 µg/mL
[2]
  MIC: 0.2 µg/mL (≈ 0.497 µM)
Pyrenophora teres
  MIC: 3.13 µg/mL (≈ 7.77 µM)
Rhizoctonia solani
  MIC: > 100 µg/mL
